Assay: Exploratory aldehyde trapping studies in PBS and ACN/H2O (MS)
Assay type: biochemical
Conditions: 10 μM aldehyde, 1 mM trapping reagent, PBS or 50/50 ACN/H2O
Procedure: Semicarbazide (SCZ), glutathione (GSH), cysteine, and N-acetyl cysteine were used as trapping agents with the aldehydes 4-hydroxynonenal (4-HNE), malondialdehyde, acetaldehyde, hexanal, pentanal, and decanal. 10 μM of aldehyde was mixed with 1 mM of trapping reagent in either PBS or 50/50 ACN/H2O.

Row | Compound | trapping of aldehydes as judged by MS | trapping effectiveness, comparison of trapping agents
1 | N[C@@H](CCC(=O)N[C@@H](CS)C(=O)NCC(=O)O)C(=O)O [glutathione] | appeared to trap aldehydes | –
2 | NNC(N)=O [semicarbazide, Semicarbazide] | appeared to trap aldehydes | more effective than GSH
